ChEMBL document CHEMBL6092216, “Development of α-Helical Antimicrobial Peptides with Imperfect Amphipathicity for Superior Activity and Selectivity” (J Med Chem, 2024)
Calls of active or inactive are those of the source. The rule behind the calls is not given here. Where a SMILES comes first, the peptide text is derived from it. [ ]: non-standard residue; d: D form. Hmpa(2S,3S) = CC[C@H](C)[C@H](O)C(=O)O

Experiments:
Staphylococcus aureus [1] = assay: Antibacterial activity against Staphylococcus aureus ATCC 6538 assessed as inhibition of bacterial growth by tube microdilution assay; format: functional
Acinetobacter baumannii = assay: Antibacterial activity against Acinetobacter baumannii ATCC 19606 assessed as inhibition of bacterial growth by tube microdilution assay; format: functional
HEK-293T = assay: Cytotoxicity against HEK293T cells assessed as effect on cell viability at 3.13 to 400 ug/ml incubated for 24 hrs by CCK-8 assay; format: toxicity, cell-based; settings: human, dose 3.13-400 µg/ml
Erythrocyte = assay: Induction of hemolysis in mouse red blood cells at 1.56 to 100 ug/ml incubated for 1 hr; format: toxicity, cell-based; settings: dose 1.56-100 µg/ml
HaCaT = assay: Cytotoxicity against human HaCaT cells assessed as effect on cell viability at 3.13 to 400 ug/ml incubated for 24 hrs by CCK-8 assay; format: toxicity, cell-based; settings: dose 3.13-400 µg/ml
Staphylococcus aureus [2] = assay: Ratio of MIC for bactericidal activity against Staphylococcus aureus ATCC 6538 measured after 35 passages to MIC for bactericidal activity against Staphylococcus aureus ATCC 6538 measured after short period of drug exposure; format: functional
Staphylococcus aureus [3] = assay: Induction of bacterial cell rupture in Staphylococcus aureus ATCC 6538 assessed as cell disruption at 5XMIC measured after 30 mins by transmission electron microscopy; format: functional, organism-based
Staphylococcus aureus [4] = assay: Antibacterial activity against Staphylococcus aureus ATCC 6538 infected in BALB/c mouse assessed as inhibition of bacterial colonization on wounded skin at 0.5 mg/ml applied on skin and measured after 2 hrs; format: functional, organism-based
Staphylococcus aureus [5] = assay: Induction of bacterial cell rupture in Staphylococcus aureus ATCC 6538 assessed as cell disruption at 5XMIC measured after 30 mins by scanning electron microscopy; format: functional, organism-based
Staphylococcus aureus [6] = assay: Bactericidal activity against Staphylococcus aureus ATCC 6538 assessed as elimination of bacterial cells at 5X to 10X MIC by killing kinetic assay; format: functional, organism-based
Cell membrane = assay: Induction of membrane permeabilization in Staphylococcus aureus ATCC 6538 assessed as increase in fluorescence intensity at 5XMIC measured for 90 mins by propidium iodide staining based fluorescence analysis; format: subcellular

Molecule | MIC (Staphylococcus aureus [1]) [µg/mL] | MIC (Acinetobacter baumannii) [µg/mL] | also measured
H-KKFIKKVKKVKKAIKEGI-OH | 75 | 37.5 | –
H-FIKKVKKVKKAIKEGIKK-OH | 75 | 37.5 | –
H-GIKKFIKKVKKVKKAIKE-OH | 75 | 37.5 | –
H-IKKFIKKVKKVKKAIK-OH | 4.68 | 4.68 | Activity (HEK-293T): Non-toxic; Activity (Erythrocyte): Non-toxic; Activity (HaCaT): Non-toxic
H-RRGIKKFIKKVKKVKKAIKEGIKKGIKKLL-OH | 9.37 | 9.37 | –
CC[C@H](C)[C@H](N)C(=O)N[C@@H](CCCCN)C(=O)N[C@@H](CCCCN)C(=O)NCC(=O)O[C@H](C(=O)N[C@@H](CCCCN)C(=O)N[C@@H](CCCCN)C(=O)N[C@@H](CC(C)C)C(=O)N[C@@H](CC(C)C)C(=O)O)[C@@H](C)CC (H-IKKG[Hmpa(2S,3S)]KKLL-OH) | > 200 | > 200 | Activity (HEK-293T): Non-toxic; Activity (Erythrocyte): Non-toxic; Activity (HaCaT): Non-toxic
CC[C@H](C)[C@H](NC(=O)CN)C(=O)N[C@@H](CCCCN)C(=O)N[C@@H](CCCCN)C(=O)NCC(=O)O[C@H](C(=O)N[C@@H](CCCCN)C(=O)N[C@@H](CCCCN)C(=O)N[C@@H](CC(C)C)C(=O)N[C@@H](CC(C)C)C(=O)O)[C@@H](C)CC (H-GIKKG[Hmpa(2S,3S)]KKLL-OH) | > 200 | > 200 | –
H-RGIKKFIKKVKKVKKAIK-OH | 2.34 | 2.34 | –
H-IKKFIKKVKKVKKAIKEG-OH | 75 | 37.5 | Activity (HEK-293T): Non-toxic; Activity (Erythrocyte): Non-toxic; Activity (HaCaT): Non-toxic
CN[C@H](CC(C)C)C(=O)N[C@H]1C(=O)N[C@@H](CC(N)=O)C(=O)N[C@H]2C(=O)N[C@H]3C(=O)N[C@H](C(=O)N[C@H](C(=O)O)c4cc(O)cc(O)c4-c4cc3ccc4O)[C@H](O)c3ccc(c(Cl)c3)Oc3cc2cc(c3O[C@@H]2O[C@H](CO)[C@@H](O)[C@H](O)[C@H]2O[C@H]2C[C@](C)(N)[C@H](O)[C@H](C)O2)Oc2ccc(cc2Cl)[C@H]1O [VANCOMYCIN] | – | – | Ratio (Staphylococcus aureus [2]): 4; Activity (Staphylococcus aureus [3]): Active; Limited Cell Disruption With Most Cells Remain Intact And Unaffected; Activity (Staphylococcus aureus [4]): Active; Activity (Staphylococcus aureus [5]): Active; Limited Cell Disruption With Most Cells Remain Intact And Unaffected; Activity (Staphylococcus aureus [6]): Active; Slow Killing Rate; Activity (Cell membrane): inactive
H-IKKVKKVKKAIKEGIKKG-OH | 75 | 75 | –
H-SGGGSNIAHGPGGRRHIA-OH | > 200 | > 200 | –
H-KFIKKVKKVKKAIKEGIK-OH | 75 | 37.5 | –
